This experiment concerns P-388 murine leukemia. The experiment is described as follows: Activity against P-388 murine leukemia (P-388 screen, survival of tumor-implanted mice). The conditions noted are these: for minimal effective dose: Mus musculus, P388, ip; for activity against P-388 leukemia (in words): in vivo P-388 leukemia, compared to concurrently run mitomycin C controls. Format: in vivo, CDF₁ female mice. The procedure:
The Table contains the results of laboratory tests with CDF₁ female mice implanted intraperitoneally with a tumor inoculum of 10⁶ ascites cells of P-388 murine leukemia and treated with various doses of either a test compound of this invention, or with mitomycin C. The compounds were administered by intraperitoneal injection. Groups of six mice were used for each dosage amount and they were treated with a single dose of the compound on the day of inoculation. A group of ten saline treated control mice was included in each series of experiments. The mitomycin C treated groups were included as a positive control. A 30-day protocol was employed with the mean survival time in days being determined for each group of mice and the number of survivors at the end of the 30-day period being noted.
The results were determined in terms of % T/C which is the ration of the mean survival time of the treated group to the mean survival time of the saline treated control group times 100. The saline treated control animals usually died within nine days. The "maximum effect" in the following Table is expressed as % T/C and the dose giving that effect is given in parentheses. The values in brackets are the values obtained with mitomycin C as the positive control in the same experiment. Thus, a measure of the relative activity of the present substances to mitomycin C can be estimated. A minimum effect in terms of % T/C was considered to be 125. The minimum effective dose (MED) reported in the following Table is that dose given a % T/C of approximately 125 or greater.

Where [1] appears, read: read-out: MED (minimum effective dose, %T/C≧125), P-388 leukemia ip, single ip dose on the day of inoculation, mitomycin C value in brackets from the same experiment.

SMILES strings stand for the structures. “And” between values parts separate entries of the source, which are not always exact repeats. Equal values may be shown once. Read-outs that look alike come from different tables or passages of the source.

With `CO[C@@]12[C@H](COC(N)=O)C3=C(C(O)=C(C)C(=NNC(C)=O)C3=O)N1C[C@@H]1N[C@@H]12` [I, Acetic acid, [1aS-(1aα, 8β, 8aα, 8bα)]-[8-[[(aminocarbonyl)oxy]methyl]-1,1a,2,8,8a,8b-hexahydro-4-hydroxy-8a-methoxy-5-methyl-7-oxoazirino [2′,3′;3,4]pyrrolo[1,2-a]indol-6(7H)-ylidene]hydrazide], the “activity against P-388 leukemia (in words)” value is on record as “pronounced activity”. Besides, the minimal effective dose under setting [1] is 1.6 mg/kg.

In the case of `CO[C@@]12[C@H](COC(N)=O)C3=C(C(O)=C(C)C(=NNC(=O)c4ccccc4)C3=O)N1C[C@@H]1N[C@@H]12` [II, Benzoic acid, [1aS-(1aα, 8β, 8aα, 8bα)]-[8-[[(aminocarbonyl)-oxy]methyl]-1,1a,2,8,8a,8b-hexahydro-4-hydroxy-8a-methoxy-5-methyl-7-oxoazirino[2′,3′,4]pyrrolo[1,2-a]indol-6(7H)-ylidene]hydrazide], the “activity against P-388 leukemia (in words)” value is given as “moderately active”. Moreover, the minimal effective dose under setting [1] was 0.8 mg/kg.

Consider `CO[C@@]12[C@H](COC(N)=O)C3=C(C(O)=C(C)C(=NNC(=O)c4cccnc4)C3=O)N1C[C@@H]1N[C@@H]12` [III, 3-Pyridinecarboxylic acid, [1aS-(1aα, 8β, 8aα, 8bα)]-[8-[[(aminocarbonyl)-oxy]methyl]-1,1a,2,8,8a,8b-hexahydro-4-hydroxy-8a-methoxy-5-methyl-7-oxoazirino[2′,3′;3,4,]pyrrolo[1,2-a]indol-6(7H)-ylidene]hydrazide], for which the “activity against P-388 leukemia (in words)” value is “moderately active”. Also, the minimal effective dose under setting [1] is 12.8 mg/kg.

On to `CO[C@@]12[C@H](COC(N)=O)C3=C(C(O)=C(C)C(=NNC(=O)c4cccs4)C3=O)N1C[C@@H]1N[C@@H]12` [IV], for which the “activity against P-388 leukemia (in words)” value was “moderately active”. Also, the minimal effective dose under setting [1] came to 0.8 mg/kg.

For the compound `CCOC(=O)NN=C1C(=O)C2=C(C(O)=C1C)N1C[C@@H]3N[C@@H]3[C@]1(OC)[C@@H]2COC(N)=O` [V, Ethyl [1aS-(1aα, 8β, 8aα, 8bα)]-[8-[[(aminocarbonyl)oxy]methyl]-1,1a,2,8,8a,8b-hexahydro-4-hydroxy-8a-methoxy-5-methyl-7-oxoazirino[2′,3′,3,4]pyrrolo[1,2-a]indol-6(7H)-ylidene]hydrazinecarboxylate], the “activity against P-388 leukemia (in words)” value is recorded as “highest efficacy”. In addition, the minimal effective dose under setting [1] is 0.8 mg/kg.

As to `CO[C@@]12[C@H](COC(N)=O)C3=C(C(O)=C(C)C(=NNC(=O)OCc4ccccc4)C3=O)N1C[C@@H]1N[C@@H]12` [VII, Phenylmethyl [1aS-(1aα, 8β, 8aα, 8bα)]-[8-[[(aminocarbonyl)-oxy]methyl]-1,1a, 2,8,8a, 8b-hexahydro-4-hydroxy-8a-methoxy-5-methyl-7-oxoazirino[2′, 3′; 3, 4]pyrrolo[1,2-a]indol-6(7H)-ylidene] hydrazinecarboxylate], the “activity against P-388 leukemia (in words)” value was “highest efficacy”. Also, under setting [1], the minimal effective dose turned out to be 1.6 mg/kg.

For `CO[C@@]12[C@H](COC(N)=O)C3=C(C(O)=C(C)C(=NNC(=O)OCC4c5ccccc5-c5ccccc54)C3=O)N1C[C@@H]1N[C@@H]12` [VIII, 9′-Fluorenylmethyl[1aS-(1aα, 8β, 8aα, 8bα)]-[8-[[(aminocarbonyl)oxy]-methyl]-1,1a, 2,8,8a, 8b-hexahydro-4-hydroxy-8a-methoxy-5-methyl-7-oxoazirino[2′, 3′;3,4,]pyrrolo[1,2-a]indol-6(7H)-ylidene]hydrazine carboxylate], the “activity against P-388 leukemia (in words)” value is “highest efficacy”. The minimal effective dose under setting [1] is 0.8 mg/kg.

For the compound `CO[C@@]12[C@H](COC(N)=O)C3=C(C(O)=C(C)C(=NNC(=O)OC(C)(C)C)C3=O)N1C[C@@H]1N[C@@H]12` [VI], the minimal effective dose under setting [1] turned out to be 0.8 mg/kg.

Regarding `CO[C@@]12[C@H](COC(N)=O)C3=C(C(=O)C(C)=C(N)C3=O)N1C[C@@H]1N[C@@H]12` [mitomycin C, 7-amino-9α-methoxymitosane, reference compound], the minimal effective dose (P-388 leukemia ip, single ip dose on the day of inoculation, mitomycin C value in brackets from the same experiment, read-out: MED (minimum effective dose, %T/C≧125)) stood at 1.6 mg/kg. Besides, for the setting “P-388 leukemia ip, single ip dose on the day of inoculation, mitomycin C value in brackets from the same experiment”, the “MED (minimum effective dose, %T/C≧125)” value was 1.6[1.6] mg/kg per dose and 0.8[0.8] mg/kg per dose.

The record behind these values is patent EP0328121A1, “Substituted hydrazine mitomycin analogs” (priority 1988, dated 1989).
